# Ends that are not written are not given here. Peptide text beside a SMILES is read from it.
# Columns and labels:
# CRF2R = biological target: T1, CRF2R (Homo sapiens, UniProt Q13324); assay: CRF2R agonist activation (EC50 / Emax), called comparative CRF binding; assay type: cell-based; conditions: for EC50: read-out: CRF2R EC50; for Emax: read-out: CRF2R Emax
# T1 sequence (Q13324 1-411): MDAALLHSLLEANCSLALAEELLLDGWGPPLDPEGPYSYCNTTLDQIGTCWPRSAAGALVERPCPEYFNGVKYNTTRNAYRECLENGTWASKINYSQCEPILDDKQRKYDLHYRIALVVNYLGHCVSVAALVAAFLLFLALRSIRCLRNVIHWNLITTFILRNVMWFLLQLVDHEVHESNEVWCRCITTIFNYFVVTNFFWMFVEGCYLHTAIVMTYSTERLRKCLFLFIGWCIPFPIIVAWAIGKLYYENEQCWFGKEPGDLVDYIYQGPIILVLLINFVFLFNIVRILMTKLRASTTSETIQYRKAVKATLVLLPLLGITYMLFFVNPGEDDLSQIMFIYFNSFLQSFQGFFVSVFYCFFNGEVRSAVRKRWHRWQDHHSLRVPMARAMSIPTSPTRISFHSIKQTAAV
# Procedure, shortened: (§1)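 Cells expressing human CRF1R or CRF2R are exposed to peptide or vehicle control, and receptor activation is read as cAMP induction, measured in cell lysates or via a CRE-linked reporter gene.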
# CRF1R = biological target: T2, CRF1R (Homo sapiens, UniProt P34998); assay: CRF1R agonist activation (EC50 / Emax), called comparative CRF binding; assay type: cell-based; conditions: for EC50: read-out: CRF1R EC50; for Emax: read-out: CRF1R Emax
# T2 sequence (P34998 24-415): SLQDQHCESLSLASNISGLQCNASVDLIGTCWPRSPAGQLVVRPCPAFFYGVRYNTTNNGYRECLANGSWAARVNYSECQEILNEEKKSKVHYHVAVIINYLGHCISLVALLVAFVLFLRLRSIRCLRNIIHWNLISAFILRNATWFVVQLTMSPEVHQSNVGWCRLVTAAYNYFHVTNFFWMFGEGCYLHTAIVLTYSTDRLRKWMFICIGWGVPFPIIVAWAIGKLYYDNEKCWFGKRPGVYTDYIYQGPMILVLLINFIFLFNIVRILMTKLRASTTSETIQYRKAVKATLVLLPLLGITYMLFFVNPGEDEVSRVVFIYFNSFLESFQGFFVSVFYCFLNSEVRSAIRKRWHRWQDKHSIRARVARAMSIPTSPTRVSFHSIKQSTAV
# Procedure, shortened: as §1
Compound,EC50 (CRF2R) [nM],Emax (CRF2R) [%],EC50 (CRF1R) [nM],Emax (CRF1R) [%]
CC[C@H](C)[C@H](NC(=O)[C@H](CCCNC(=N)N)NC(=O)[C@H](C)NC(=O)[C@H](CC(N)=O)NC(=O)[C@H](CCC(N)=O)NC(=O)[C@H](CCC(=O)O)NC(=O)[C@H](C)NC(=O)[C@H](CCCNC(=N)N)NC(=O)[C@H](CCC(=O)O)NC(=O)[C@H](CCCNC(=N)N)NC(=O)[C@H](CCC(N)=O)NC(=O)[C@H](CO)NC(=O)[C@H](CCC(N)=O)NC(=O)[C@@H](NC(=O)[C@H](CCCNC(=N)N)NC(=O)[C@H](C)NC(=O)[C@H](CC(C)C)NC(=O)[C@H](CCC(=O)O)NC(=O)[C@H](CC(C)C)NC(=O)[C@H](CC(C)C)NC(=O)[C@@H](NC(=O)[C@H](CCCNC(=N)N)NC(=O)[C@H](CC(C)C)NC(=O)[C@H](CC(C)C)NC(=O)[C@@H](NC(=O)[C@H](CC(C)C)NC(=O)[C@@H]1CCCN1C(=O)[C@H](CC(C)C)NC(=O)[C@H](CC(=O)O)NC(=O)[C@@H](NC(=O)[C@H](CO)NC(=O)[C@H](CC(C)C)NC(=O)[C@H](CO)NC(=O)[C@@H]1CCCN1C(=O)[C@H](CC(N)=O)NC(=O)[C@@H](N)CC(=O)O)[C@@H](C)CC)[C@@H](C)CC)[C@@H](C)O)[C@@H](C)O)C(=O)N[C@@H](Cc1ccccc1)C(=O)N[C@@H](C)C(=O)N[C@@H](CCCNC(=N)N)C(=O)N[C@H](C(N)=O)C(C)C [compound 330] (H-DNPSLSIDLPLILLRTLLELARTQSQRERAEQNARIFARV-NH2; N-terminus assumed),6,93.7,≥ 1000,86.8
CC[C@H](C)[C@H](NC(=O)[C@H](C)NC(=O)[C@H](CC(N)=O)NC(=O)[C@H](CCC(N)=O)NC(=O)[C@H](CCC(=O)O)NC(=O)[C@H](C)NC(=O)[C@H](CCCNC(=N)N)NC(=O)[C@H](CCC(=O)O)NC(=O)[C@H](CCCNC(=N)N)NC(=O)[C@H](CCC(N)=O)NC(=O)[C@H](CO)NC(=O)[C@H](CCC(N)=O)NC(=O)[C@@H](NC(=O)[C@H](CCCCN)NC(=O)[C@H](CCC(=O)O)NC(=O)[C@H](CC(C)C)NC(=O)[C@H](CCC(=O)O)NC(=O)[C@H](CC(C)C)NC(=O)[C@H](CC(C)C)NC(=O)[C@@H](NC(=O)[C@H](CCCNC(=N)N)NC(=O)[C@H](CC(C)C)NC(=O)[C@H](CC(C)C)NC(=O)[C@@H](NC(=O)[C@H](CC(C)C)NC(=O)[C@@H]1CCCN1C(=O)[C@H](CC(C)C)NC(=O)[C@H](CC(=O)O)NC(=O)[C@@H](NC(=O)[C@H](CO)NC(=O)[C@H](CC(C)C)NC(=O)[C@H](CO)NC(=O)[C@@H]1CCCN1C(=O)[C@H](CC(N)=O)NC(=O)[C@@H](N)CC(=O)O)[C@@H](C)CC)[C@@H](C)CC)[C@@H](C)O)[C@@H](C)O)C(=O)N[C@H](C(=O)N[C@@H](Cc1ccccc1)C(=O)N[C@@H](C)C(=O)N[C@@H](CO)C(=O)N[C@H](C(N)=O)C(C)C)[C@@H](C)CC [compound 345] (H-DNPSLSIDLPLILLRTLLELEKTQSQRERAEQNAIIFASV-NH2; N-terminus assumed),39.7,100,≥ 1000,18.8
CC[C@H](C)[C@H](N)C(=O)N[C@H](C(=O)N[C@@H](CC(C)C)C(=O)N[C@@H](CO)C(=O)N[C@@H](CC(C)C)C(=O)N[C@@H](CC(=O)O)C(=O)N[C@H](C(=O)N1CCC[C@H]1C(=O)N[C@H](C(=O)NCC(=O)N[C@@H](CC(C)C)C(=O)N[C@@H](CC(C)C)C(=O)N[C@@H](CCC(N)=O)C(=O)N[C@@H](CCC(=O)O)C(=O)N[C@@H](CC(C)C)C(=O)N[C@@H](CC(C)C)C(=O)N[C@@H](CCC(=O)O)C(=O)N[C@@H](CCSC)C(=O)N[C@@H](C)C(=O)N[C@@H](CCCNC(=N)N)C(=O)N[C@@H](C)C(=O)N[C@@H](CCC(=O)O)C(=O)N[C@@H](CCC(N)=O)C(=O)N[C@@H](CC(C)C)C(=O)N[C@@H](C)C(=O)N[C@@H](CCC(N)=O)C(=O)N[C@@H](CCC(N)=O)C(=O)N[C@@H](C)C(=O)N[C@@H](Cc1c[nH]cn1)C(=O)N[C@@H](CO)C(=O)N[C@@H](CC(N)=O)C(=O)N[C@@H](CCCNC(=N)N)C(=O)N[C@@H](CCCCN)C(=O)N[C@@H](CC(C)C)C(=O)N[C@@H](CCSC)C(=O)N[C@@H](CCC(=O)O)C(=O)N[C@H](C(=O)N[C@H](C(N)=O)[C@@H](C)CC)[C@@H](C)CC)[C@@H](C)CC)C(C)C)C(C)C [compound 1] (H-IVLSLDVPIGLLQELLEMARAEQLAQQAHSNRKLMEII-NH2; N-terminus assumed),,100,,64
CC[C@H](C)[C@H](N)C(=O)N[C@H](C(=O)N[C@@H](CC(C)C)C(=O)N[C@@H](CO)C(=O)N[C@@H](CC(C)C)C(=O)N[C@@H](CC(=O)O)C(=O)N[C@H](C(=O)N1CCC[C@H]1C(=O)N[C@H](C(=O)NCC(=O)N[C@@H](CC(C)C)C(=O)N[C@@H](CC(C)C)C(=O)N[C@@H](CCC(N)=O)C(=O)N[C@H](C(=O)N[C@@H](CC(C)C)C(=O)N[C@@H](CC(C)C)C(=O)N[C@@H](CCC(=O)O)C(=O)N[C@@H](CC(C)C)C(=O)N[C@@H](C)C(=O)N[C@@H](CCCNC(=N)N)C(=O)N[C@H](C(=O)N[C@@H](CCC(N)=O)C(=O)N[C@@H](CO)C(=O)N[C@@H](CCC(N)=O)C(=O)N[C@@H](CCCNC(=N)N)C(=O)N[C@@H](CCC(=O)O)C(=O)N[C@@H](CCCNC(=N)N)C(=O)N[C@@H](C)C(=O)N[C@@H](CCC(=O)O)C(=O)N[C@@H](CCC(N)=O)C(=O)N[C@@H](CC(N)=O)C(=O)N[C@@H](CCCNC(=N)N)C(=O)N[C@H](C(=O)N[C@H](C(=O)N[C@@H](Cc1ccccc1)C(=O)N[C@@H](CC(=O)O)C(=O)N[C@@H](CO)C(=O)N[C@H](C(N)=O)C(C)C)[C@@H](C)CC)[C@@H](C)CC)[C@@H](C)O)[C@@H](C)O)[C@@H](C)CC)C(C)C)C(C)C [compound 160] (H-IVLSLDVPIGLLQTLLELARTQSQRERAEQNRIIFDSV-NH2; N-terminus assumed),,87,,10
SQEPPISLDLTFGLLREVLEMTKADQLAQQAHSNRKLLDIA-NH2 [compound 88],,12.6,,11.2
CC[C@H](C)[C@H](NC(=O)[C@H](C)NC(=O)[C@H](CC(N)=O)NC(=O)[C@H](CCC(N)=O)NC(=O)[C@H](CCC(=O)O)NC(=O)[C@H](C)NC(=O)[C@H](CCCNC(=N)N)NC(=O)[C@H](CCC(=O)O)NC(=O)[C@H](CCCNC(=N)N)NC(=O)[C@H](CCC(N)=O)NC(=O)[C@H](CO)NC(=O)[C@H](CCC(N)=O)NC(=O)[C@@H](NC(=O)[C@H](CCCNC(=N)N)NC(=O)[C@H](C)NC(=O)[C@H](CC(C)C)NC(=O)[C@H](CCC(=O)O)NC(=O)[C@H](CC(C)C)NC(=O)[C@H](CC(C)C)NC(=O)[C@@H](NC(=O)[C@H](CCCNC(=N)N)NC(=O)[C@H](CC(C)C)NC(=O)[C@H](CC(C)C)NC(=O)[C@@H](NC(=O)[C@H](Cc1ccccc1)NC(=O)[C@@H]1CCCN1C(=O)[C@H](CC(C)C)NC(=O)[C@H](CC(=O)O)NC(=O)[C@@H](NC(=O)[C@H](CO)NC(=O)[C@H](CC(C)C)NC(=O)[C@H](CO)NC(=O)[C@@H]1CCCN1C(=O)[C@H](CC(N)=O)NC(=O)[C@@H](N)CC(=O)O)[C@@H](C)CC)[C@@H](C)CC)[C@@H](C)O)[C@@H](C)O)C(=O)N[C@H](C(=O)N[C@@H](Cc1ccccc1)C(=O)N[C@@H](C)C(=O)N[C@@H](CO)C(=O)N[C@H](C(N)=O)C(C)C)[C@@H](C)CC [compound 181] (H-DNPSLSIDLPFILLRTLLELARTQSQRERAEQNAIIFASV-NH2; N-terminus assumed),,97.8,,100
CC[C@H](C)[C@H](NC(=O)[C@H](CCCNC(=N)N)NC(=O)[C@H](C)NC(=O)[C@H](CC(N)=O)NC(=O)[C@H](CCC(N)=O)NC(=O)[C@H](CCC(=O)O)NC(=O)[C@H](C)NC(=O)[C@H](CCCNC(=N)N)NC(=O)[C@H](CCC(=O)O)NC(=O)[C@H](CCCNC(=N)N)NC(=O)[C@H](CCC(N)=O)NC(=O)[C@H](CO)NC(=O)[C@H](CCC(N)=O)NC(=O)[C@@H](NC(=O)[C@H](CCCCN)NC(=O)[C@H](CCC(=O)O)NC(=O)[C@H](CC(C)C)NC(=O)[C@H](CCC(=O)O)NC(=O)[C@H](CC(C)C)NC(=O)[C@H](CC(C)C)NC(=O)[C@@H](NC(=O)[C@H](CCCNC(=N)N)NC(=O)[C@H](CC(C)C)NC(=O)[C@H](CC(C)C)NC(=O)[C@H](CC(C)C)NC(=O)[C@H](CC(C)C)NC(=O)[C@@H]1CCCN1C(=O)[C@@H](NC(=O)[C@H](CC(=O)O)NC(=O)[C@@H](NC(=O)[C@H](CO)NC(=O)[C@H](CC(C)C)NC(=O)[C@H](CO)NC(=O)[C@@H]1CCCN1C(=O)[C@H](CC(N)=O)NC(=O)[C@@H](N)CC(=O)O)[C@@H](C)CC)C(C)C)[C@@H](C)O)[C@@H](C)O)C(=O)N[C@@H](Cc1ccccc1)C(=O)N[C@@H](C)C(=O)N[C@@H](CCCNC(=N)N)C(=O)N[C@H](C(N)=O)C(C)C [compound 384] (H-DNPSLSIDVPLLLLRTLLELEKTQSQRERAEQNARIFARV-NH2; N-terminus assumed),,97.3,,70.3

# From patent US6936585B2, “Corticotropin releasing factor 2 receptor agonists” (priority 2002, dated 2005)
